According to patent US20020061869A1, “Free insulin testosterone test” (priority 1998, published 2002):

Key:
[1] = tested on: subject (tissue glucose stores); assay: Example 5: intramuscular testosterone enanthate, Hemoglobin A1C; assay type: in vivo, human; details: 9.9 in May
Procedure: Testosterone enanthate 300 mg was given to a subject intramuscularly twice weekly for four weeks, then continued with therapy of 300 mg every two weeks.

[2] = tested on: diabetic patient on oral hypoglycemic agents; assay: Example 3: intramuscular depo-testosterone in a person on oral hypoglycemic agents; assay type: in vivo, human; details: 250 mg intramuscularly three times weekly for four weeks
Procedure: J. G. was a person on oral hypoglycemic agents for ten years. Present dosage was 20 mg/day, Micronase 7 (Upjohn). They presented with ulcerations in four areas of their left foot, no dorsal pedis pulsation, and was scheduled for amputation but refused. Fasting glucose was 244.

[3] = tested on: insulin dependent diabetic patient; assay: Example 2: intramuscular depo-testosterone enanthate in an insulin dependent diabetic person; assay type: in vivo, human; details: 150 mg intramuscularly three times weekly
Procedure: A. W. was a person who has been an insulin dependent diabetic for fifteen years. […] They were scheduled for amputation. They used 24 units of Humulin insulin in the morning and 16 units at night. Their fasting blood glucose was 334. Treated with 150 mg of depo-testosterone enanthate intramuscularly, three times weekly, they became euglycemic on less than 12 units daily; see FIG. 1. However, due to the infected heel ulcer, amputation proceeded.

[4] = tested on: patient with uncontrolled diabetes; assay: Example 4: testosterone subcutaneous pellets in a person with uncontrolled diabetes; assay type: in vivo, human; details: 250 to 900 mg subcutaneous pellets every six weeks over six months, before: 100 units of Humulin
Procedure: G. S. was a person with uncontrolled diabetes for ten years. Seen intermittently for ulceration of the feet, they presented with a serum glucose of 550 while on 100 units of Humulin. They refused admission to the hospital.
Over the course of six months, […] received 250 to 900 mg of […] testosterone subcutaneous pellets every six (6) weeks. […] insulin requirements were reduced 35 units while […] serum glucose remained stable at 140 to 180 mg/dl; see FIG. 3.

[5] = tested on: insulin dependent diabetes mellitus patient; assay: Example 1: intramuscular aqueous testosterone in an insulin dependent diabetic person with gangrene; assay type: in vivo, human
Procedure: C. W. was a person with a fifteen-year history of insulin dependent diabetes mellitus. They were hospitalized with gangrene of the middle finger of their right hand and was scheduled for amputation. They had already had bilateral femoral-popliteal bypass surgery for vascular insufficiency of the lower extremities. Due to anorexia, they were given an intramuscular injection of 200 mg of aqueous testosterone. Their fasting glucose fell from 212 to 159.

[6] = tested on: men with cluster headaches; assay: Testosterone supplementation in men with cluster headaches and low Testosterone Ratio Test; assay type: in vivo, human; details: two men; supplementation to therapeutic levels at the normal male maximum
[7] = target: T1, sex hormone-binding globulin (Homo sapiens, UniProt P04278); details: readily reversible at 37° C.; cited from earlier work
T1 sequence (P04278 30-402): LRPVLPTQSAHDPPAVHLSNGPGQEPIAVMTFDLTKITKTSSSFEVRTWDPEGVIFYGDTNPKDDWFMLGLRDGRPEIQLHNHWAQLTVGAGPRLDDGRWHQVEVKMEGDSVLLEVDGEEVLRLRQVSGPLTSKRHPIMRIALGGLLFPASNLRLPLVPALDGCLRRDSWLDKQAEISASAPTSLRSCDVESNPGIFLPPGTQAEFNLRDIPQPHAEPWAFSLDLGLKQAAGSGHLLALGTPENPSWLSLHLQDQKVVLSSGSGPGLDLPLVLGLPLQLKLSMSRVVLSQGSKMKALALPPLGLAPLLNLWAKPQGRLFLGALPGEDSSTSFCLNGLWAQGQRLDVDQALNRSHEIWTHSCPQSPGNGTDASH

menopausal women = details: cited from earlier work
rats = tested on: rats; design: dose or concentration left out as unconfirmed; details: female rats, high dose, cited from earlier work
[8] = cited from earlier work

CCCCCCC(=O)O[C@H]1CC[C@H]2[C@@H]3CCC4=CC(=O)CC[C@]4(C)[C@H]3CC[C@]12C [Testosterone enanthate]
Hemoglobin A1C ([1]; August, 1998, 300 mg intramuscularly twice weekly for four weeks then every two weeks): 7.2 | Hemoglobin A1C ([1]; October, 1998, 300 mg intramuscularly twice weekly for four weeks then every two weeks): 5.5 | use of oral hypoglycemic agents ([2]; before: Micronase 20 mg/day): discontinuing their oral agents | glycemic status ([2]; person, fasting glucose before 244): euglycemic | insulin requirement daily ([3]; before: 24 units morning and 16 units at night): less than 12 units | glycemic status ([3]; person, fasting blood glucose before 334): euglycemic

C[C@]12CC[C@H]3[C@@H](CCC4=CC(=O)CC[C@@]43C)[C@@H]1CC[C@@H]2O [testosterone]
insulin requirements reduced [4]: 35 units | healing of gangrenous finger ([5]; amputation made unnecessary): healed completely in two months | fasting glucose ([5]; person, after intramuscular injection of 200 mg, fell from 212): 159 | serum glucose outcome ([5]; repeated dosing every other day for one week): normalization of their serum glucose | insulin requirement (Humulin daily) ([5]; repeated dosing every other day for one week, decrease from 44 units): 24 units | cluster headaches/migraines [6]: complete absence of cluster headaches/migraines for two years | binding affinity K [7]: approximately 10^9 M^−1

estrogen
reduction of cardiovascular disease mortality (menopausal women): fifty percent

Cc1c(C)c2c(c(C)c1O)CCC(C)(COc1ccc(CC3SC(=O)NC3=O)cc1)O2 (stereo not drawn) [troglitazone]
sarcomatous tumors (rats; daily for 104 weeks, dose associated with excessive mortality): statistically significant increase in sarcomatous tumors | exposure relative to estimated human exposure of parent compound (rats): 47 fold | side effects ([8]; as reported to date): abnormal liver function tests, jaundice, drop in white blood cell count and drop in hemoglobin which may persist for two years | lowering of effective blood level of co-administered drugs ([8]; oral contraceptives, terfenadine, and choleslyramine): up to 30%
